# Laboratory results reported in patent US11673881B2, “Isoquinolin-3-yl carboxamides and preparation and use thereof” (BioSplice Therapeutics, Inc., priority 2016, dated 2023).
# Legend:
# [1] = tested on: Wnt activity, Sp5-Luc reporter in SW480 colon carcinoma cells; test: Screening assay for Wnt activity (Sp5-Luc reporter gene assay); format: cell-based, human
# Protocol: The screening assay for Wnt activity is described as follows.
# Following incubation, 15 μl of BriteLite Plus luminescence reagent (Perkin Elmer) was added to each well of the 384-well assay plates. The plates were placed on an orbital shaker for 2 min and then luminescence was quantified using the Envision (Perkin Elmer) plate reader.
# [2] = tested on: Tau phosphorylation at Ser396 (pSer396); test: Tau phosphorylation assay (pSer396) in SH-SY5Y cells; format: cell-based, human; settings: overnight (16-18 h) exposure, pSer396 Tau ELISA
# Protocol: Two days before treatment, cells were seeded onto 96 well plates at 5×10^4 cells/well.
# Wells were visually checked for cell death or change in morphology and supernatants were tested for cytotoxicity by measurement of lactate dehydrogenase release (LDH, CytoToxOne kit, Promega) if necessary.
# Cells were lysed with RIPA buffer complemented with phosphatase and protease inhibitors then lysates were spun down at 12,000 g for 10 min to remove any cellular debris. Lysates are then either directly tested for pSer396 by ELISA (Life Technology, Kit KHB7031) or loaded on NuPage Bis-Tris gels for western blot analysis. Colorimetric detection of ELISA signal is performed by Cytation3 plate reader (Biotek) and the chemiluminescence signal for HRP-linked antibodies used in western blotting is detected using a Carestream Image Station. The same pSer396 antibody is used for detection of pTau in both assays.
# [3] = tested on: SW480 colon carcinoma cells; test: Cell viability assay (CellTiter-Glo); format: cell-based, human; settings: four days incubation
# [4] = tested on: LL29 cells (αSMA positive cells); test: Fibrosis assay: TGF-β1 treated primary human fibroblasts from IPF patients, αSMA staining; format: cell-based; settings: LL29 cells treated with TGF-β1, 4 days
# [5] = tested on: IL-6; test: IL-6 inhibition in LPS-stimulated human peripheral blood mononuclear cells (HTRF); format: cell-based; settings: LPS-stimulated huPBMCs, IL-6 HTRF
# Protocol: After 22 hour incubation, a mixture of anti-IL6 XL665 and anti-IL-6 Cryptate diluted in reconstitution buffer (Catalog #62IL6PEC, Cisbio Inc., Bedford, Mass.) was added to each well. […] All samples were processed in duplicate. […] EC50 was determined using software generated by Dotmatics Limited (Windhill Bishops Stortford Herts, UK) using the Levenberg-Marquardt 4 parameter fitting procedure with finite different gradients.
structure (smiles),measurement,setting,value
"Cn1cc(-c2ccc3cnc(NC(=O)C(C)(C)F)cc3c2)nn1 [Compound 312, 2-Fluoro-2-methyl-N-(6-(1-methyl-1H-1,2,3-triazol-4-yl)isoquinolin-3-yl) propanamide]",percent inhibition at 10 μM,[1]; given for EC50 of >10 μM,23.8%
same,EC50,[1]; incubated 36 to 48 hours,> 10 µM
same,EC50,[2],0.762 µM
same,EC50,[3],> 10 µM
same,percent inhibition at 10 μM (given where EC50 >10 μM),[4]; 10 μM,36.5%
same,EC50,[4]; αSMA staining,> 10 µM
same,percent inhibition at 10 μM (given where EC50 >10 μM),[5]; 10 μM,3.9%
same,EC50,[5],> 10 µM
